Data: US20240059704A1, “Cereblon Ligands and Uses Thereof” (REGENTS OF THE UNIVERSITY OF MICHIGAN, priority 2022, published 2024)
Where a name gives a salt, the structure may show the parent alone.

Key:
[1] = tested on: T47D cell line; assay: Cell growth inhibition in T47D cell line; type: cell-based; details: Homo sapiens, μM, class key in nM
Procedure: Cell Growth Assay. The cells were seeded at certain concentration (e.g., at 1500/well) in multi-well plates overnight. Cells are subsequently treated with the compounds. A certain period of time (e.g., 4 days) after the compound treatment, 10% WST-8 reagent was added to the culture medium and incubate under certain condition (e.g., in a CO2 incubator at 37° C. for 2.5 hours). The absorbance is measured on each sample using a microplate reader at certain wavelength (e.g., 450 nm). The relative absorbance is calculated against the vehicle control from three individually repeats.

[2] = target: ER (Homo sapiens (Human), UniProt P03372); assay: In-cell western blot analysis (ICW), relative ER percentage in treated cells; type: cell-based; details: ER degradation, 16 hours
Chain of ER (P03372 whole entry): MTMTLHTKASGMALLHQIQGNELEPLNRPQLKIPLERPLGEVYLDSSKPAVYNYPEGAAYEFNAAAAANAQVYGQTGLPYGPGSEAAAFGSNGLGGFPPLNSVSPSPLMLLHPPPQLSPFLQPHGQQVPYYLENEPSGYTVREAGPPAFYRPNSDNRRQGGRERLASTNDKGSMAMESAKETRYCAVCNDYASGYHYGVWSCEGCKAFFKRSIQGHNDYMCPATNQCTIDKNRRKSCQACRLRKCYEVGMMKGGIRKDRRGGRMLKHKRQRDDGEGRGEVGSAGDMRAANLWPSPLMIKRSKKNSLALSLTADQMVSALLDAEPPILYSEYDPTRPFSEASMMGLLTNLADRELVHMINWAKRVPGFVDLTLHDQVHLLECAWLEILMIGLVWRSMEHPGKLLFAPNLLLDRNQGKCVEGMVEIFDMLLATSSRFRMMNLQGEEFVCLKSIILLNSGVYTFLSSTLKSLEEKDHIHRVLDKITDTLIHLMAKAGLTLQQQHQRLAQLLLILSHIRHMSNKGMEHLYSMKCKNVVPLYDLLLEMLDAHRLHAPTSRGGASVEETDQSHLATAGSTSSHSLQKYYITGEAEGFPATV
Procedure: In-cell western blot analysis. Cells are seeded in multi-well plates (e.g., at 40,000 or 10,000 cells/well). Diluted compounds at certain concentration are added (final 0.5% DMSO) and cells are incubated for certain period of time (e.g., 16 hours). Formaldehyde (e.g., PBS:FA=9:1) is added and followed by washing with PBS. The cells are blocked with Licor blocking buffer (Li-Cor). The relative ER percentage in treated cells were obtained by comparing the values of treated wells to those in untreated and DMSO-treated wells as 100%.
In-cell western blot analysis. a. seed cells in black-sided/clear bottom 96- or 384-well plates at 40,000 or 10,000 cells/well, overnight; b. add diluted compounds (final 0.5% DMSO), 16 hours. 16 h later, remove medium, add 100 μL or 25 μL of 3.7-4.0% formaldehyde (PBS:FA=9:1), RT 20 min, no shaking; c. wash with PBS, and permeabilized with 100 μL or 25 μL/well of 1×PBS+0.1% Triton X-100 10 minutes; d. block with 100 μL or 25 μL Licor blocking buffer (Li-Cor), RT 1h, moderate shaking; d. Add 100 μL or 25 μL of anti-ER (cs-8644, 1:500-1,000)+GAPDH (Millipore MAB374, 1:1000) in Block+0.05% Tween 20. RT 2h, gentle shaking. Negative control: cells plus secondary antibodies (no primary antibodies); e. wash×4 with PBS+0.05-0.1% Tween 20, gentel shaking; f. anti-rabbit-680 and anti-mouse-800 (both 1:1000 in LiCor block+0.05% Tween20, RT 1h, gentle shaking, no light. LI-COR: 0.2% to reduce background; g. wash×4 with PBS+0.05% Tween 20, gental shaking; h. add 100 μL or 25 μL of PBS to each well and read on CLX plate reader. The relative ER percentage in treated cells were obtained by comparing the values of treated wells to those in untreated and DMSO-treated wells as 100%.

[3] = target: CRBN/DDB1 (Homo sapiens (Human), UniProt Q96SW2); details: HTRF, His tagged CRBN+DDB-DLS7+CXU4, Cy5-labeled Thalidomide probe; read-out: CRBN Binding IC50
Chain of CRBN/DDB1 (Q96SW2 whole entry): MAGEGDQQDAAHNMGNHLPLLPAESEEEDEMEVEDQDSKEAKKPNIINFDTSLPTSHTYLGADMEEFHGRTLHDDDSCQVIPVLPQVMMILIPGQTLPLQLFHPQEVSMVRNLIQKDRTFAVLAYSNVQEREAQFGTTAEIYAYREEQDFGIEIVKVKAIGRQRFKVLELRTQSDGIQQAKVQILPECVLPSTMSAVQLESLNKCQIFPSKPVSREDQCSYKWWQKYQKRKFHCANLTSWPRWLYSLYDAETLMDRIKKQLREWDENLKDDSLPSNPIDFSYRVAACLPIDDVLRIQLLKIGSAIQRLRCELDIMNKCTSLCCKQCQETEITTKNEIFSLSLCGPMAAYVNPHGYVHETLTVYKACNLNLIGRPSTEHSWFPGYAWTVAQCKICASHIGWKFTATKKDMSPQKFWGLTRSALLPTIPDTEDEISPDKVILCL
Chain of CRBN/DDB1 (Q16531 whole entry partner): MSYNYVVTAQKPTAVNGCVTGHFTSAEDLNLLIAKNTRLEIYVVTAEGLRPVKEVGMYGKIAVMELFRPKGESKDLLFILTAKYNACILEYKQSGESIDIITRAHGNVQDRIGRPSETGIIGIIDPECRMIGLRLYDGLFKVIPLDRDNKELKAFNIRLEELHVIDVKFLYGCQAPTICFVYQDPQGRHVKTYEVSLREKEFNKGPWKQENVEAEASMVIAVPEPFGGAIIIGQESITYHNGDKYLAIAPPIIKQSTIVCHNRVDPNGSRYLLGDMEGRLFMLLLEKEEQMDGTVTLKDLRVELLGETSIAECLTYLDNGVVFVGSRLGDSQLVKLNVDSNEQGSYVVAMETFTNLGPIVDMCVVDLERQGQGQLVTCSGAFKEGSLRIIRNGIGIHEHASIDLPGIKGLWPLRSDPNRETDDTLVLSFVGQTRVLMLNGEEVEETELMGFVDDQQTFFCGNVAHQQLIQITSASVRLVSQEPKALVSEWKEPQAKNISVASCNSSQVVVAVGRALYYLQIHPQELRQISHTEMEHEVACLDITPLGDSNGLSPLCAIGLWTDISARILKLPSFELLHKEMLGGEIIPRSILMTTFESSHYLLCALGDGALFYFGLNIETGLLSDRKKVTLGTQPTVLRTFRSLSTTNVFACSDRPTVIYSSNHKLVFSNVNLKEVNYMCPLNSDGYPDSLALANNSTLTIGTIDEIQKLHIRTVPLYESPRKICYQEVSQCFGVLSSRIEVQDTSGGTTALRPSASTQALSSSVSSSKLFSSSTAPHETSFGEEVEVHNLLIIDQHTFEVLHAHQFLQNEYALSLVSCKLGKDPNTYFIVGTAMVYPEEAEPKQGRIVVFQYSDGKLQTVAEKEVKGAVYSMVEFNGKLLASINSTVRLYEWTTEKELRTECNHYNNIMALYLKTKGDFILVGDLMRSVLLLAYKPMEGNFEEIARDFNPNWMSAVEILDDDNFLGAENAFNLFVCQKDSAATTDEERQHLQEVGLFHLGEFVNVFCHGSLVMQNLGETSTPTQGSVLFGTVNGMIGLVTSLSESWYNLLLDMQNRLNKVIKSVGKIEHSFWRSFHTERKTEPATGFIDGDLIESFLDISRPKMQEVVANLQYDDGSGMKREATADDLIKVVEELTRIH
Procedure: The binding potency was determined using HTRF assay technology (Perkin Elmer). Compounds were serially diluted in DMSO and 0.2 μL volume was transferred to white 384-well plate.

[4] = target: wild-type human CRBN protein (Homo sapiens (Human), UniProt Q96SW2); assay: Cereblon Binding Assay (Cisbio Cereblon Binding Kit, TR-FRET); details: GST-tagged wild-type human CRBN, XL665-labelled Thalidomide
Chain of wild-type human CRBN protein (Q96SW2 whole entry): as the sequence (Q96SW2 whole entry) above
Procedure: The binding to cereblon (CRBN) was determined using the Cereblon Binding Kit (Cisbio, #64BDCRBNPEG) following the manufacturer's instruction. Briefly, serially diluted compounds were incubated with GST-tagged wild-type human CRBN protein, XL665-labelled Thalidomide and Europium Cryptate labelled GST antibody at room temperature for about 3 hours. Time Resolved Fluorescence Resonance Energy Transfer (TR-FRET) measurements were acquired on a CALRIOstar plate reader with MARS data analysis software (BMG Labtech), with the following settings: 665/10 nm and 620/10 nm emission, 60 […]. The TR-FRET ratio was taken as the 665/620 nm intensity ratio.

| IC50 [1] [µM] | DC50 [2] [nM] | IC50 [4] [nM] | Structure (SMILES) | IC50 [3] [nM] |
| --- | --- | --- | --- | --- |
| – | – | 259 | O=C1CCC(N2Cc3c(ccc4c3OCC3(CNC3)O4)C2=O)C(=O)N1 (stereo not drawn) [Compound B2, 3-(7′-oxo-7′,9′-dihydro-2′H,8′H-spiro[azetidine-3,3′-[1,4]dioxino[2,3-e]isoindol]-8′-yl)piperidine-2,6-dione] | – |
| – | – | 1730 | O=C1CC[C@H](N2Cc3cc4c(c(F)c3C2=O)OCC2(CCNCC2)O4)C(=O)N1 [Compound B3, (S)-3-(5′-fluoro-6′-oxo-6′,8′-dihydro-3′H,7′H-spiro[piperidine-4,2′-[1,4]dioxino[2,3-f]isoindol]-7′-yl)piperidine-2,6-dione] | – |
| – | – | 330 | O=C1CC[C@H](N2Cc3c(ccc4c3OCC3(CCNCC3)O4)C2=O)C(=O)N1 [Compound B1, (S)-3-(7′-oxo-7′,9′-dihydro-2′H,8′H-spiro[piperidine-4,3′-[1,4]dioxino[2,3-e]isoindol]-8′-yl)piperidine-2,6-dione] | – |
| – | – | 4330 | O=C1CC[C@H](N2Cc3cc4c(cc3C2=O)OCC2(CNC2)O4)C(=O)N1 [Compound B4, (S)-3-(6′-oxo-6′,8′-dihydro-3′H,7′H-spiro[azetidine-3,2′-[1,4]dioxino[2,3-f]isoindol]-7′-yl)piperidine-2,6-dione] | – |
| – | – | 4630 | O=C1CCC(N2C(=O)c3cc4c(cc3C2=O)OC2(CNC2)CO4)C(=O)N1 (stereo not drawn) [Compound B5, 7′-(2,6-dioxopiperidin-3-yl)-7′-hydro-3′H,6′H-spiro[azetidine-3,2′-[1,4]dioxino[2,3-f]isoindole]-6′,8′-dione] | – |

More lines, now with the values behind:

| Structure (SMILES) | IC50 [1] [µM] | DC50 [2] [nM] | IC50 [4] [nM] | IC50 [3] [nM] |
| --- | --- | --- | --- | --- |
| O=C1CCC(N2Cc3c(ccc4c3OCC3(CN(CC5CCC6(CCN(c7ccc([C@@H]8c9ccc(O)cc9CC[C@@H]8c8ccccc8)cc7)CC6)OC5)C3)O4)C2=O)C(=O)N1 (stereo partly drawn) [THP-B386] | 0.001 to 0.01 | > 100 | – | – |
| O=C1CC[C@H](N2Cc3cc4c(c(F)c3C2=O)OCC2(CCN(CC3CC5(CCN(c6ccc([C@@H]7c8ccc(O)cc8CC[C@@H]7c7ccccc7)cc6)CC5)C3)CC2)O4)C(=O)N1 [THP-B384] | 0.001 to 0.01 | > 100 | – | – |
| O=C1CC[C@H](N2Cc3c(ccc4c3OCC3(CCN(CC5CC6(CCN(c7ccc([C@@H]8c9ccc(O)cc9CC[C@@H]8c8ccccc8)cc7)CC6)C5)CC3)O4)C2=O)C(=O)N1 [THP-B371] | < 0.001 | < 10 | – | – |
| O=C1CCC(N2Cc3c(ccc4c3OC3(C=C4)CNC3)C2=O)C(=O)N1 (stereo not drawn) [Compound A3, 3-(7′-oxo-7′,9′-dihydro-8′H-spiro[azetidine-3,2′-pyrano[2,3-e]isoindol]-8′-yl)piperidine-2,6-dione hydrochloride] | – | – | – | 1300 |
| O=C1CCC(N2Cc3c(ccc4c3OCC3(CN(CC5CC6(CCN(c7ccc([C@@H]8c9ccc(O)cc9CC[C@@H]8c8ccccc8)cc7)CC6)C5)C3)O4)C2=O)C(=O)N1 (stereo partly drawn) [THP-B368] | 0.001 to 0.01 | > 100 | – | – |
| O=C1CCC(N2Cc3c(ccc4c3OCC3(CN(CC5CCN(c6ccc([C@@H]7c8ccc(O)cc8CC[C@@H]7c7ccccc7)cc6)CC5)C3)O4)C2=O)C(=O)N1 (stereo partly drawn) [THP-B367] | 0.001 to 0.01 | > 100 | – | – |
| O=C1CCC(N2Cc3c(ccc4c3OC3(CCNCC3)CC4)C2=O)C(=O)N1 (stereo not drawn) [Compound A2, 3-(7′-oxo-3′,4′,7′,9′-tetrahydro-8′H-spiro[piperidine-4,2′-pyrano[2,3-e]isoindol]-8′-yl)piperidine-2,6-dione] | – | – | – | 620 |
| O=C1CCC(N2Cc3c(ccc4c3OC3(CC4)CNC3)C2=O)C(=O)N1 (stereo not drawn) [Compound A4, 3-(7′-oxo-3′,4′,7′,9′-tetrahydro-8′H-spiro[azetidine-3,2′-pyrano[2,3-e]isoindol]-8′-yl)piperidine-2,6-dione hydrochloride] | – | – | – | 5200 |
| O=C1CC[C@H](N2Cc3cc4c(c(F)c3C2=O)OCC2(CCN(CC3CCN(c5ccc([C@@H]6c7ccc(O)cc7CC[C@@H]6c6ccccc6)cc5)CC3)CC2)O4)C(=O)N1 [THP-B383, (S)-3-(5′-fluoro-1-((1-(4-((1R,2S)-6-hydroxy-2-phenyl-1,2,3,4-tetrahydronaphthalen-1-yl)phenyl)piperidin-4-yl)methyl)-6′-oxo-6′,8′-dihydro-3′H,7′H-spiro[piperidine-4,2′-[1,4]dioxino[2,3-f]isoindol]-7′-yl)piperidine-2,6-dione] | > 0.01 | > 100 | – | – |
| O=C1CC[C@H](N2Cc3c(ccc4c3OCC3(CCN(CC5COC6(CCN(c7ccc([C@@H]8c9ccc(O)cc9CC[C@@H]8c8ccccc8)cc7)CC6)OC5)CC3)O4)C2=O)C(=O)N1 [THP-B374] | < 0.001 | < 10 | – | – |
| O=C1CCC(N2C(=O)c3cc4c(cc3C2=O)OC2(CO4)CN(CC3CC4(CCN(c5ccc([C@@H]6c7ccc(O)cc7CC[C@@H]6c6ccccc6)cc5)CC4)C3)C2)C(=O)N1 (stereo partly drawn) [THP-B385] | 0.001 to 0.01 | > 100 | – | – |
| O=C1CC[C@H](N2Cc3c(ccc4c3OCC3(CCN(CC5CCN(c6ccc([C@@H]7c8ccc(O)cc8CC[C@@H]7c7ccccc7)cc6)CC5)CC3)O4)C2=O)C(=O)N1 [THP-B369] | < 0.001 | 10 to 100 | – | – |
| O=C1CCC(N2Cc3c(ccc4c3OC3(C=C4)CCNCC3)C2=O)C(=O)N1 (stereo not drawn) [Compound A1, 3-(7′-oxo-7′,9′-dihydro-8′H-spiro[piperidine-4,2′-pyrano[2,3-e]isoindol]-8′-yl)piperidine-2,6-dione] | – | – | – | 1100 |
| O=C1CC[C@H](N2Cc3cc4c(cc3C2=O)OCC2(CN(CC3CC5(CCN(c6ccc([C@@H]7c8ccc(O)cc8CC[C@@H]7c7ccccc7)cc6)CC5)C3)C2)O4)C(=O)N1 [THP-B394, (S)-3-(1-((7-(4-((1R,2S)-6-hydroxy-2-phenyl-1,2,3,4-tetrahydronaphthalen-1-yl)phenyl)-7-azaspiro[3.5]nonan-2-yl)methyl)-6′-oxo-6′,8′-dihydro-3′H,7′H-spiro[azetidine-3,2′-[1,4]dioxino[2,3-f]isoindol]-7′-yl)piperidine-2,6-dione] | 0.001 to 0.01 | – | – | – |
| O=C1CC[C@H](N2Cc3c(ccc4c3OCC3(CCN(CC5COC6(CCN(c7ccc([C@@H]8c9ccc(O)cc9CC[C@@H]8c8ccccc8)cc7)CC6)C5)CC3)O4)C2=O)C(=O)N1 (stereo partly drawn) [THP-B373] | < 0.001 | < 10 | – | – |
| O=C1CCC(N2Cc3c(ccc4c3OCC3(CN(CC5COC6(CCN(c7ccc([C@@H]8c9ccc(O)cc9CC[C@@H]8c8ccccc8)cc7)CC6)OC5)C3)O4)C2=O)C(=O)N1 (stereo partly drawn) [THP-B377] | < 0.001 | 10 to 100 | – | – |
| O=C1CC[C@H](N2Cc3c(ccc4c3OCC3(CCN(CC5CCC6(CCN(c7ccc([C@@H]8c9ccc(O)cc9CC[C@@H]8c8ccccc8)cc7)CC6)O5)CC3)O4)C2=O)C(=O)N1 (stereo partly drawn) [THP-B372] | 0.001 to 0.01 | 10 to 100 | – | – |
| O=C1CCC(N2Cc3c(ccc4c3OCC3(CN(CC5CCC6(CC5)CN(c5ccc([C@@H]7c8ccc(O)cc8CC[C@@H]7c7ccccc7)cc5)C6)C3)O4)C2=O)C(=O)N1 (stereo partly drawn) [THP-B376] | < 0.001 | 10 to 100 | – | – |
